# From US20240409585A1, “MACROCYCLIC IMMUNOMODULATORS” (priority 2021, published 2024)
# Bridge positions count the residues as written; N and C are the ends. Square brackets hold non-standard residues; d marks the D form. Peptide text beside a SMILES is read from it. * marks the point of attachment. ξ: configuration not given here. Phe(4-COOH) = N[C@@H](Cc1ccc(C(=O)O)cc1)C(=O)O; Bip = N[C@@H](Cc1ccc(-c2ccccc2)cc1)C(=O)O; Phe(4-NH2) = Nc1ccc(C[C@H](N)C(=O)O)cc1; Phe(3-Me) = Cc1cccc(C[C@H](N)C(=O)O)c1; Phe(2-Me) = Cc1ccccc1C[C@H](N)C(=O)O; Val(3-OH) = CC(C)(O)[C@H](N)C(=O)O; 4Pal = N[C@@H](Cc1ccncc1)C(=O)O; Cha = N[C@@H](CC1CCCCC1)C(=O)O; Cit = NC(=O)NCCC[C@H](N)C(=O)O; Ile(3ξ) = CCC(C)[C@H](N)C(=O)O; Thr(3ξ) = CC(O)[C@H](N)C(=O)O; NMeNle = CCCC[C@H](NC)C(=O)O; Pip = O=C(O)[C@@H]1CCCCN1; Carboxymethyl = O=C(O)C*; NMeA = CN[C@@H](C)C(=O)O; Nle = CCCC[C@H](N)C(=O)O; Orn = NCCC[C@H](N)C(=O)O; Dab = NCC[C@H](N)C(=O)O; Dap = NC[C@H](N)C(=O)O
# Biological target: T1, PE-labeled human PD-L1-Ig binding to Jurkat cell line over-expressing human PD-1 (Jurkat-PD-1) (Homo sapiens, UniProt Q15116)
# T1 construct: expressed in transfected cells; host or cells: Jurkat
# Assay: Jurkat-PD-1 Cell Binding High-Content Screening Assay (CBA): Method 1
# Conditions: Jurkat-hPD-1 cells, PE-labeled PD-L1-Ig 20 nM final; read-out: Jurkat HPDL1 PD1 IC50 (uM) (Method 1)
# T1 sequence (Q15116 25-288): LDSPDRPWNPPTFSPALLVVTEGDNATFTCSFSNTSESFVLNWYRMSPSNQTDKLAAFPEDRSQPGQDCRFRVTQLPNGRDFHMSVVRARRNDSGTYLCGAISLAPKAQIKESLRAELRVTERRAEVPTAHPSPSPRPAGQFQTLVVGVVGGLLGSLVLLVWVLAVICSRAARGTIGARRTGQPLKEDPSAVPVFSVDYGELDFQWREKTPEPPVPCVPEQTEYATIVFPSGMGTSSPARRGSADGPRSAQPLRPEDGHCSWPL
row,SMILES,IC50 [µM]
1,CC(C)C[C@@H]1NC(=O)[C@H](CCCNC(=N)N)NC(=O)[C@@H](CC(C)C)NC(=O)[C@H](C)N(C)C(=O)[C@H](CCCNC(N)=O)NC(=O)[C@H](Cc2ccc(-c3ccccc3)cc2)NC(=O)[C@H](C(C)C)NC(=O)[C@H](Cc2c[nH]c3ccccc23)NC(=O)[C@H](CC(=O)O)NC(=O)[C@H](Cc2ccc(O)cc2)NC(=O)[C@H](CC(N)=O)NC(=O)CSC[C@@H](C(=O)N[C@@H](C)C(N)=O)NC(=O)[C@H]([C@@H](C)O)NC(=O)[C@H](C(C)C)NC1=O [Compound 1166] ({CH2CO}-NYDWV[Bip][Cit][NMeA][dL]RLVTCA-NH2; thioether N-14),0.06
2,CCCC[C@@H]1NC(=O)[C@H](CCCNC(=N)N)NC(=O)[C@@H](CC(C)C)NC(=O)[C@H](C)N(C)C(=O)[C@H]([C@@H](C)CC)NC(=O)[C@H](Cc2ccc(-c3ccccc3)cc2)NC(=O)[C@H](C(C)C)NC(=O)[C@H](Cc2c[nH]c3ccccc23)NC(=O)[C@H](CC(=O)O)NC(=O)[C@H](Cc2ccc(O)cc2)NC(=O)[C@H](Cc2ccc(OCC(=O)O)cc2)NC(=O)CSC[C@@H](C(=O)N[C@@H](C)C(N)=O)NC(=O)[C@H]([C@@H](C)O)NC(=O)[C@H](C(C)C)NC1=O [Compound 1497] ({CH2CO}-Y(Carboxymethyl)YDWV[Bip]I[NMeA][dL]R[Nle]VTCA-NH2; thioether N-14),0.2
3,CC(C)C[C@@H]1NC(=O)[C@H](CCN)NC(=O)[C@@H](CC(C)C)NC(=O)[C@@H]2CCCCN2C(=O)[C@H](C(C)C)NC(=O)[C@H](Cc2ccc(-c3ccccc3)cc2)NC(=O)[C@H](C(C)C)NC(=O)[C@H](Cc2c[nH]c3ccccc23)NC(=O)[C@H](CC(=O)O)NC(=O)[C@H](Cc2ccc(O)cc2)NC(=O)[C@H](CC(N)=O)NC(=O)CSC[C@@H](C(=O)N[C@@H](C)C(N)=O)NC(=O)[C@H]([C@@H](C)O)NC(=O)[C@H](C(C)C)NC1=O [Compound 1298] ({CH2CO}-NYDWV[Bip]V[Pip][dL][Dab]LVTCA-NH2; thioether N-14),0.03
4,CC[C@H](C)[C@@H]1NC(=O)[C@H](Cc2ccc(-c3ccccc3)cc2)NC(=O)[C@H](C(C)C)NC(=O)[C@H](Cc2c[nH]c3ccccc23)NC(=O)[C@H](CC(=O)O)NC(=O)[C@H](Cc2ccc(O)cc2)NC(=O)[C@H](CN)NC(=O)CSC[C@@H](C(=O)N[C@@H](C)C(N)=O)NC(=O)[C@H]([C@@H](C)O)NC(=O)[C@H](C(C)C)NC(=O)[C@H](CC(C)C)NC(=O)[C@H](CCN)NC(=O)[C@@H](CC(C)C)NC(=O)[C@H](C)N(C)C1=O [Compound 1414] ({CH2CO}-[Dap]YDWV[Bip]I[NMeA][dL][Dab]LVTCA-NH2; thioether N-14),0.1
5,Cc1cccc(C[C@@H]2NC(=O)[C@H](CC(=O)O)NC(=O)[C@H](Cc3ccc(C(=O)O)cc3)NC(=O)[C@H](Cc3ccncc3)NC(=O)CSC[C@@H](C(=O)N[C@@H](CO)C(N)=O)NC(=O)[C@H](CCC(=O)O)NC(=O)[C@H](C(C)(C)O)NC(=O)[C@H](CC3CCCCC3)NC(=O)[C@H](CCN)NC(=O)[C@@H](CC(C)C)NC(=O)[C@H](C)N(C)C(=O)[C@H](Cc3ccc(OCC(=O)O)cc3)NC(=O)[C@H](Cc3ccc(-c4ccccc4)cc3)NC(=O)[C@H](Cc3ccc(OCC(=O)O)cc3)NC2=O)c1 [Compound 2194] ({CH2CO}-[4Pal][Phe(4-COOH)]D[Phe(3-Me)]Y(Carboxymethyl)[Bip]Y(Carboxymethyl)[NMeA][dL][Dab][Cha][Val(3-OH)]ECS-NH2; thioether N-14),0.26
6,CC(C)C[C@@H]1NC(=O)[C@H](Cc2c[nH]c3ccccc23)NC(=O)[C@H](CC(=O)O)NC(=O)[C@H](Cc2ccc(OCC(=O)O)cc2)NC(=O)[C@H](Cc2ccccc2)NC(=O)CSC[C@@H](C(=O)N[C@@H](C)C(N)=O)NC(=O)[C@H](CO)NC(=O)[C@H](C(C)C)NC(=O)[C@H](CC(C)C)NC(=O)[C@H](CC(=O)O)NC(=O)[C@@H](CC(C)C)NC(=O)[C@H](C)N(C)C(=O)[C@H](C(C)C)NC(=O)[C@H](Cc2ccc(-c3ccccc3)cc2)NC1=O [Compound 2027] ({CH2CO}-FY(Carboxymethyl)DWL[Bip]V[NMeA][dL]DLVSCA-NH2; thioether N-14),0.02
7,CC(C)C[C@@H]1NC(=O)[C@H](Cc2c[nH]c3ccccc23)NC(=O)[C@H](CC(=O)O)NC(=O)[C@H](Cc2ccncc2)NC(=O)[C@H](Cc2ccc(OCC(=O)O)cc2)NC(=O)CSC[C@@H](C(=O)N[C@@H](CC(N)=O)C(N)=O)NC(=O)[C@H](CO)NC(=O)[C@H](C(C)C)NC(=O)[C@H](CC2CCCCC2)NC(=O)[C@H](CCN)NC(=O)[C@@H](CC(C)C)NC(=O)[C@H](C)N(C)C(=O)[C@H](Cc2ccc(O)cc2)NC(=O)[C@H](Cc2ccc(-c3ccccc3)cc2)NC1=O [Compound 1906] ({CH2CO}-Y(Carboxymethyl)[4Pal]DWL[Bip]Y[NMeA][dL][Dab][Cha]VSCN-NH2; thioether N-14),0.05
8,CC(C)C[C@@H]1NC(=O)[C@H](CCCNC(=N)N)NC(=O)[C@@H](CC(C)C)NC(=O)[C@H](C)N(C)C(=O)[C@H](CCCNC(=N)N)NC(=O)[C@H](Cc2ccc(-c3ccccc3)cc2)NC(=O)[C@H](C(C)C)NC(=O)[C@H](Cc2c[nH]c3ccccc23)NC(=O)[C@H](CC(=O)O)NC(=O)[C@H](Cc2ccc(N)cc2)NC(=O)[C@H](Cc2ccccc2)NC(=O)CSC[C@@H](C(=O)N[C@@H](C)C(N)=O)NC(=O)[C@H]([C@@H](C)O)NC(=O)[C@H](C(C)C)NC1=O [Compound 1082] ({CH2CO}-F[Phe(4-NH2)]DWV[Bip]R[NMeA][dL]RLVTCA-NH2; thioether N-14),0.04
9,Cc1ccccc1C[C@@H]1NC(=O)[C@H](Cc2ccccc2)NC(=O)CSC[C@@H](C(=O)N[C@@H](C)C(N)=O)NC(=O)[C@H](CO)NC(=O)[C@H](C(C)C)NC(=O)[C@H](CC(C)C)NC(=O)[C@H](CC(N)=O)NC(=O)[C@@H](C)NC(=O)[C@H](C)N(C)C(=O)[C@H](C(C)C)NC(=O)[C@H](Cc2ccc(-c3ccccc3)cc2)NC(=O)[C@H](CC(C)C)NC(=O)[C@H](Cc2c[nH]c3ccccc23)NC(=O)[C@H](CC(=O)O)NC1=O [Compound 1794] ({CH2CO}-F[Phe(2-Me)]DWL[Bip]V[NMeA][dA]NLVSCA-NH2; thioether N-14),0.15
10,CC(C)C[C@@H]1NC(=O)[C@H](CCN)NC(=O)[C@@H](CC(C)C)NC(=O)[C@H](C)N(C)C(=O)[C@H](CCCNC(=N)N)NC(=O)[C@H](Cc2ccc(-c3ccccc3)cc2)NC(=O)[C@H](C(C)C)NC(=O)[C@H](Cc2c[nH]c3ccccc23)NC(=O)[C@H](CC(=O)O)NC(=O)[C@H](Cc2cnc[nH]2)NC(=O)[C@H](Cc2cnc[nH]2)NC(=O)CSC[C@@H](C(=O)N[C@@H](C)C(N)=O)NC(=O)[C@H]([C@@H](C)O)NC(=O)[C@H](C(C)C)NC1=O [Compound 1142] ({CH2CO}-HHDWV[Bip]R[NMeA][dL][Dab]LVTCA-NH2; thioether N-14),0.24
11,CC(C)C[C@@H]1NC(=O)[C@H](CCCNC(=N)N)NC(=O)[C@@H](CC(C)C)NC(=O)[C@H](C)N(C)C(=O)[C@H](CCCNC(=N)N)NC(=O)[C@H](Cc2ccc(-c3ccccc3)cc2)NC(=O)[C@H](C(C)C)NC(=O)[C@H](Cc2c[nH]c3ccccc23)NC(=O)[C@H](CC(=O)O)NC(=O)[C@H](Cc2ccc(O)cc2)NC(=O)[C@H](Cc2ccccc2)NC(=O)CSC[C@@H](C(=O)N[C@@H](C)C(N)=O)NC(=O)[C@H]([C@@H](C)O)NC(=O)[C@H](C(C)C)NC1=O [Compound 1048] ({CH2CO}-FYDWV[Bip]R[NMeA][dL]RLVTCA-NH2; thioether N-14),0.06
12,Cc1cccc(C[C@@H]2NC(=O)[C@H](CC(=O)O)NC(=O)[C@H](Cc3ccc(OCC(=O)O)cc3)NC(=O)[C@H](CN)NC(=O)CSC[C@@H](C(N)=O)NC(=O)[C@H](CCC(=O)O)NC(=O)[C@H](C(C)C)NC(=O)[C@H](CC3CCCCC3)NC(=O)[C@H](CCN)NC(=O)[C@@H](CC(C)C)NC(=O)[C@@H]3CCCCN3C(=O)[C@H](Cc3ccc(OCC(=O)O)cc3)NC(=O)[C@H](Cc3ccc(-c4ccccc4)cc3)NC(=O)[C@H](Cc3ccc(OCC(=O)O)cc3)NC2=O)c1 [Compound 1894] ({CH2CO}-[Dap]Y(Carboxymethyl)D[Phe(3-Me)]Y(Carboxymethyl)[Bip]Y(Carboxymethyl)[Pip][dL][Dab][Cha]VEC-NH2; thioether N-14),0.3
13,CCCC[C@@H]1NC(=O)[C@H](CCCNC(=N)N)NC(=O)[C@@H](CC(C)C)NC(=O)[C@H](C)N(C)C(=O)[C@H]([C@@H](C)CC)NC(=O)[C@H](Cc2ccc(-c3ccccc3)cc2)NC(=O)[C@H](C(C)C)NC(=O)[C@H](Cc2c[nH]c3ccccc23)NC(=O)[C@H](CC(=O)O)NC(=O)[C@H](Cc2ccc(O)cc2)NC(=O)[C@H](CN)NC(=O)CSC[C@@H](C(=O)N[C@@H](C)C(N)=O)NC(=O)[C@H]([C@@H](C)O)NC(=O)[C@H](C(C)C)NC1=O [Compound 1496] ({CH2CO}-[Dap]YDWV[Bip]I[NMeA][dL]R[Nle]VTCA-NH2; thioether N-14),0.18
14,CC(C)C[C@@H]1NC(=O)[C@H](CCCN)NC(=O)[C@@H](CC(C)C)NC(=O)[C@H](C)N(C)C(=O)[C@H](CCC(=O)O)NC(=O)[C@H](Cc2ccc(-c3ccccc3)cc2)NC(=O)[C@H](C(C)C)NC(=O)[C@H](Cc2c[nH]c3ccccc23)NC(=O)[C@H](CC(=O)O)NC(=O)[C@H](Cc2ccc(O)cc2)NC(=O)[C@H](CC(N)=O)NC(=O)CSC[C@@H](C(=O)N[C@@H](C)C(N)=O)NC(=O)[C@H]([C@@H](C)O)NC(=O)[C@H](C(C)C)NC1=O [Compound 1239] ({CH2CO}-NYDWV[Bip]E[NMeA][dL][Orn]LVTCA-NH2; thioether N-14),0.08
15,CCCC[C@H]1C(=O)N[C@H](CC(C)C)C(=O)N[C@@H](CCN)C(=O)N[C@@H](CC(C)C)C(=O)N[C@@H](C(C)C)C(=O)N[C@@H](CO)C(=O)N[C@H](C(=O)N[C@@H](CC(N)=O)C(=O)O)CSCC(=O)N[C@@H](C(C)O)C(=O)N[C@@H](Cc2ccc(OCC(=O)O)cc2)C(=O)N[C@@H](CC(=O)O)C(=O)N[C@@H](Cc2c[nH]c3ccccc23)C(=O)N[C@@H](CC(C)C)C(=O)N[C@@H](Cc2ccc(-c3ccccc3)cc2)C(=O)N[C@@H](C(C)CC)C(=O)N1C (stereo partly drawn) [Compound 2229] ({CH2CO}-[Thr(3ξ)]Y(Carboxymethyl)DWL[Bip][Ile(3ξ)][NMeNle][dL][Dab]LVSCN-OH; thioether N-14),0.11
